TGI data for 17 compounds are collected here from PubChem BioAssay (NCI).

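Step 1: Grow cells in 96-well plates. Step 2: Expose to compound for 48 hours at 5 concentrations. Step 3: Interpolate endpoints linearly; if unreached, use highest concentration. Definition used: TGI = concentration required for complete inhibition of growth.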 Where only a bound is given, the exact number is not on record here.

The term TGI denotes the concentration giving total growth inhibition. A lower TGI goes with more potent growth arrest.

One test has as its system SK-OV-3 ovarian. Nature of the test: DTP human tumour cell line panel, 48 h.
As for `Cc1n(CC(C)C)c2c([n+]1C)C(=O)c1ccccc1C2=O`, the concentration for total growth inhibition (TGI) worked out at 2.2 µM.
Still for that read-out and setting: to `N[C@@H]1CCN(c2c(F)cc3c(=O)c(C(=O)O)cn4c3c2Oc2c-4ccc3c2ccc2ccccc23)C1` belongs more than 100 µM.
The same measure, in the same setting: the result for `Cc1ccc(C2(O)CSC(=NC34CC5CC(CC(C5)C3)C4)N2C(P(=O)(O)O)P(=O)(O)O)cc1` (stereo not drawn) reads more than 100 µM.
Compound `CC(C)CCNC(=O)c1ccc(CNC(=O)/C=C/c2cccc(Oc3ccccc3)c2)cc1` returned a total growth inhibition concentration (TGI) of 98.3 µM.
`C/C(=N\NS(=O)(=O)c1ccc(C)cc1)c1ccccn1` returned a TGI of more than 100 µM.
On the same count and under the same terms, to `Cc1ccc2c(ccc(/C=C/c3ccc(O)c4ncccc34)[n+]2C)c1` belongs 34.3 µM.
`CCOC(=O)c1ccc(N=C/C=C(\Nc2ccc(C(=O)OCC)cc2)C23CC4CC(CC(C4)C2)C3)cc1` returned a TGI of more than 100 µM.
`Cc1ccc(C(=O)N/N=C(\N=Nc2cccc([N+](=O)[O-])c2)c2ccc(N(CCC#N)CCC#N)cc2C)cc1` came in with a TGI of more than 85.2 µM.
For `O=C(O)c1c2c(cc3c1CC(Cc1ccccc1)C3=O)CCC2` (stereo not drawn), the TGI was more than 100 µM.
`OC(CC1CCCCN1)c1ccc2c(c1)oc1ccccc12` (stereo not drawn) registered a TGI of more than 100 µM.
The same measure, in the same setting: to `C=CCCON(C(=O)OC(C)(C)C)c1ccccc1` belongs more than 100 µM; to `O=C1OC(CCCN2CCCCC2)(c2ccccc2)CC12CCCC2` (stereo not drawn), more than 100 µM.
`COC(=O)[C@@H]1C=C[C@H](OC2OC(COC(C)=O)C(OC(C)=O)C(OC(C)=O)C2OC(C)=O)n2c(=O)n(-c3ccccc3)c(=O)n21` (stereo partly drawn) returned a total growth inhibition concentration (TGI) of 29.4 µM.
In the case of `C=CCn1c(N)c(C#N)c(C#N)c1CCC`, the concentration for total growth inhibition (TGI) was more than 100 µM.
For `COC(=O)C1=C(OC(=O)/C(=C/c2ccccc2)c2ccc(Cl)cc2Cl)C(C(=O)OC)[C@@]2(O)[C@@H](C(=O)OC)[C@H](C)C[C@@H]1[C@@H]2C(=O)OC` (stereo partly drawn), the concentration for total growth inhibition (TGI) is more than 100 µM.
`C#CCn1c(=O)c(I)cn(/C(=C/C(=O)OCC)C(=O)OCC)c1=O` had a total growth inhibition concentration (TGI) of 31.8 µM.
Compound `CS(=O)(=O)C(C#N)c1nc2ccccc2nc1Cl` (stereo not drawn) registered a TGI of more than 100 µM.

The test system of a further test is SNB-19 CNS. Nature of the test: DTP human tumour cell line panel, 48 h.
`Cc1n(CC(C)C)c2c([n+]1C)C(=O)c1ccccc1C2=O` gave a total growth inhibition concentration (TGI) of 0.647 µM.
Compound `N[C@@H]1CCN(c2c(F)cc3c(=O)c(C(=O)O)cn4c3c2Oc2c-4ccc3c2ccc2ccccc23)C1` registered a total growth inhibition concentration (TGI) of 10.4 µM.
`Cc1ccc(C2(O)CSC(=NC34CC5CC(CC(C5)C3)C4)N2C(P(=O)(O)O)P(=O)(O)O)cc1` (stereo not drawn) returned a TGI of more than 100 µM.
`CC(C)CCNC(=O)c1ccc(CNC(=O)/C=C/c2cccc(Oc3ccccc3)c2)cc1` yielded a TGI of more than 100 µM.
On the same count and under the same terms, the result for `C/C(=N\NS(=O)(=O)c1ccc(C)cc1)c1ccccn1` reads more than 100 µM; that for `Cc1ccc2c(ccc(/C=C/c3ccc(O)c4ncccc34)[n+]2C)c1`, 36.9 µM.
On to `CCOC(=O)c1ccc(N=C/C=C(\Nc2ccc(C(=O)OCC)cc2)C23CC4CC(CC(C4)C2)C3)cc1`, for which the TGI is more than 100 µM.
`Cc1ccc(C(=O)N/N=C(\N=Nc2cccc([N+](=O)[O-])c2)c2ccc(N(CCC#N)CCC#N)cc2C)cc1`: the concentration for total growth inhibition (TGI) was more than 100 µM.
For `O=C(O)c1c2c(cc3c1CC(Cc1ccccc1)C3=O)CCC2` (stereo not drawn), the TGI is more than 100 µM.
`OC(CC1CCCCN1)c1ccc2c(c1)oc1ccccc12` (stereo not drawn): the TGI was more than 100 µM.
In the case of `C=CCCON(C(=O)OC(C)(C)C)c1ccccc1`, the TGI is more than 100 µM.
As to `O=C1OC(CCCN2CCCCC2)(c2ccccc2)CC12CCCC2` (stereo not drawn), the TGI is more than 100 µM.
On the same count and under the same terms, to `COC(=O)[C@@H]1C=C[C@H](OC2OC(COC(C)=O)C(OC(C)=O)C(OC(C)=O)C2OC(C)=O)n2c(=O)n(-c3ccccc3)c(=O)n21` (stereo partly drawn) belongs 25.8 µM; to `C=CCn1c(N)c(C#N)c(C#N)c1CCC`, more than 100 µM.
Turning to `COC(=O)C1=C(OC(=O)/C(=C/c2ccccc2)c2ccc(Cl)cc2Cl)C(C(=O)OC)[C@@]2(O)[C@@H](C(=O)OC)[C@H](C)C[C@@H]1[C@@H]2C(=O)OC` (stereo partly drawn), the concentration for total growth inhibition (TGI) was more than 100 µM.
In turn, `C#CCn1c(=O)c(I)cn(/C(=C/C(=O)OCC)C(=O)OCC)c1=O` yielded a TGI of 34.5 µM.
On to `CS(=O)(=O)C(C#N)c1nc2ccccc2nc1Cl` (stereo not drawn), for which the total growth inhibition concentration (TGI) is more than 100 µM.

Another test relates to TK-10 renal. Nature of the test: DTP human tumour cell line panel, 48 h.
Take `Cc1n(CC(C)C)c2c([n+]1C)C(=O)c1ccccc1C2=O`: the total growth inhibition concentration (TGI) was 3.38 µM.
On the same count and under the same terms, the result for `N[C@@H]1CCN(c2c(F)cc3c(=O)c(C(=O)O)cn4c3c2Oc2c-4ccc3c2ccc2ccccc23)C1` reads 40 µM.
For `Cc1ccc(C2(O)CSC(=NC34CC5CC(CC(C5)C3)C4)N2C(P(=O)(O)O)P(=O)(O)O)cc1` (stereo not drawn), the TGI was more than 100 µM.
Still for that read-out and setting: to `CC(C)CCNC(=O)c1ccc(CNC(=O)/C=C/c2cccc(Oc3ccccc3)c2)cc1` belongs 96.9 µM; to `C/C(=N\NS(=O)(=O)c1ccc(C)cc1)c1ccccn1`, more than 100 µM.
`Cc1ccc2c(ccc(/C=C/c3ccc(O)c4ncccc34)[n+]2C)c1` gave a TGI of 38.9 µM.
`CCOC(=O)c1ccc(N=C/C=C(\Nc2ccc(C(=O)OCC)cc2)C23CC4CC(CC(C4)C2)C3)cc1`: the TGI was more than 100 µM.
For the compound `Cc1ccc(C(=O)N/N=C(\N=Nc2cccc([N+](=O)[O-])c2)c2ccc(N(CCC#N)CCC#N)cc2C)cc1`, the TGI is more than 100 µM.
`O=C(O)c1c2c(cc3c1CC(Cc1ccccc1)C3=O)CCC2` (stereo not drawn) displayed a concentration for total growth inhibition (TGI) of more than 100 µM.
Still for that read-out and setting: the result for `OC(CC1CCCCN1)c1ccc2c(c1)oc1ccccc12` (stereo not drawn) reads more than 100 µM; that for `C=CCCON(C(=O)OC(C)(C)C)c1ccccc1`, more than 100 µM.
`O=C1OC(CCCN2CCCCC2)(c2ccccc2)CC12CCCC2` (stereo not drawn) displayed a total growth inhibition concentration (TGI) of more than 100 µM.
For the compound `COC(=O)[C@@H]1C=C[C@H](OC2OC(COC(C)=O)C(OC(C)=O)C(OC(C)=O)C2OC(C)=O)n2c(=O)n(-c3ccccc3)c(=O)n21` (stereo partly drawn), the TGI stood at 3.74 µM.
Turning to `C=CCn1c(N)c(C#N)c(C#N)c1CCC`, the TGI was more than 100 µM.
Regarding `COC(=O)C1=C(OC(=O)/C(=C/c2ccccc2)c2ccc(Cl)cc2Cl)C(C(=O)OC)[C@@]2(O)[C@@H](C(=O)OC)[C@H](C)C[C@@H]1[C@@H]2C(=O)OC` (stereo partly drawn), the TGI is more than 100 µM.
In turn, `C#CCn1c(=O)c(I)cn(/C(=C/C(=O)OCC)C(=O)OCC)c1=O` came in with a TGI of 1.67 µM.
`CS(=O)(=O)C(C#N)c1nc2ccccc2nc1Cl` (stereo not drawn) registered a concentration for total growth inhibition (TGI) of more than 66.5 µM.

Another test concerns UO-31 renal. Description: DTP human tumour cell line panel, 48 h.
For the compound `Cc1n(CC(C)C)c2c([n+]1C)C(=O)c1ccccc1C2=O`, the concentration for total growth inhibition (TGI) came to 3.55 µM.
Same read-out and setting: to `N[C@@H]1CCN(c2c(F)cc3c(=O)c(C(=O)O)cn4c3c2Oc2c-4ccc3c2ccc2ccccc23)C1` belongs more than 100 µM.
In the case of `Cc1ccc(C2(O)CSC(=NC34CC5CC(CC(C5)C3)C4)N2C(P(=O)(O)O)P(=O)(O)O)cc1` (stereo not drawn), the TGI was more than 100 µM.
The compound `CC(C)CCNC(=O)c1ccc(CNC(=O)/C=C/c2cccc(Oc3ccccc3)c2)cc1` came in with a TGI of more than 100 µM.
Compound `C/C(=N\NS(=O)(=O)c1ccc(C)cc1)c1ccccn1` showed a TGI of more than 100 µM.
The compound `Cc1ccc2c(ccc(/C=C/c3ccc(O)c4ncccc34)[n+]2C)c1` registered a TGI of more than 49.3 µM.
Take `CCOC(=O)c1ccc(N=C/C=C(\Nc2ccc(C(=O)OCC)cc2)C23CC4CC(CC(C4)C2)C3)cc1`: the TGI was more than 100 µM.
`Cc1ccc(C(=O)N/N=C(\N=Nc2cccc([N+](=O)[O-])c2)c2ccc(N(CCC#N)CCC#N)cc2C)cc1` displayed a TGI of more than 100 µM.
Same read-out and setting: the result for `O=C(O)c1c2c(cc3c1CC(Cc1ccccc1)C3=O)CCC2` (stereo not drawn) reads 30.5 µM.
For the compound `OC(CC1CCCCN1)c1ccc2c(c1)oc1ccccc12` (stereo not drawn), the TGI was more than 100 µM.
`C=CCCON(C(=O)OC(C)(C)C)c1ccccc1` came in with a TGI of more than 100 µM.
For `O=C1OC(CCCN2CCCCC2)(c2ccccc2)CC12CCCC2` (stereo not drawn), the TGI was more than 100 µM.
In turn, `COC(=O)[C@@H]1C=C[C@H](OC2OC(COC(C)=O)C(OC(C)=O)C(OC(C)=O)C2OC(C)=O)n2c(=O)n(-c3ccccc3)c(=O)n21` (stereo partly drawn) showed a TGI of 5.25 µM.
Consider `C=CCn1c(N)c(C#N)c(C#N)c1CCC`, for which the TGI was more than 100 µM.
Still for that read-out and setting: to `COC(=O)C1=C(OC(=O)/C(=C/c2ccccc2)c2ccc(Cl)cc2Cl)C(C(=O)OC)[C@@]2(O)[C@@H](C(=O)OC)[C@H](C)C[C@@H]1[C@@H]2C(=O)OC` (stereo partly drawn) belongs more than 100 µM.
For `C#CCn1c(=O)c(I)cn(/C(=C/C(=O)OCC)C(=O)OCC)c1=O`, the concentration for total growth inhibition (TGI) is 2.86 µM.
The same measure, in the same setting: the result for `CS(=O)(=O)C(C#N)c1nc2ccccc2nc1Cl` (stereo not drawn) reads more than 100 µM.
